Where two headings read alike, the source gives them in different places.
Assays:
MV4;11 cells = test: Cell viability assay (CellTiter-Glo) in MV4;11 cells, alone or with gilteritinib; format: cell-based; details: Homo sapiens, MV4-11, 72 h, MV4;11 cells, three days, CellTiter-Glo, read-out: MV4
MOLM-13 cells = test: Cell viability assay (CellTiter-Glo) in MOLM-13 cells, alone or with gilteritinib; format: cell-based; details: Homo sapiens, MOLM-13, 72 h, MOLM-13 cells, three days, CellTiter-Glo
[1] = compound alone (without gilteritinib), 11 IC50
[2] = with gilteritinib 10 nM, 11 IC50 gilteritinib
[3] = compound alone (without gilteritinib), read-out: MOLM-13 IC50
[4] = with gilteritinib 20 nM, read-out: MOLM-13 IC50 gilteritinib

SMILES	IC50 (MV4;11 cells; [1]) [nM]	IC50 (MV4;11 cells; [2]) [nM]	IC50 (MOLM-13 cells; [3]) [nM]	IC50 (MOLM-13 cells; [4]) [nM]
O=C1CCC(N2C(=O)c3ccc(NCCC[C@H]4C[C@H](n5cc(-c6cnc7ccc(OC8CC8)cc7n6)cn5)C4)cc3C2=O)C(=O)N1 (stereo partly drawn) [GS-202, 5-((3-(trans-3-(4-(7-Cyclopropoxyquinoxalin-2-yl)-1H-pyrazol-1-yl)cyclobutyl)propyl)amino)-2-(2,6-dioxopiperidin-3-yl)isoindoline-1,3-dione]	10 to 100	< 10	100 to 1000	< 10
O=C1CCC(N2C(=O)c3ccc(NCCC[C@H]4C[C@H](n5cc(-c6cnc7ccc(N8C[C@@H]9C[C@H]8CN9)cc7n6)cn5)C4)cc3C2=O)C(=O)N1 (stereo partly drawn) [GS-203, 5-((3-(trans-3-(4-(7-((1S,4S)-2,5-Diazabicyclo[2.2.1]heptan-2-yl)quinoxalin-2-yl)-1H-pyrazol-1-yl)cyclobutyl)propyl)amino)-2-(2,6-dioxopiperidin-3-yl)isoindoline-1,3-dione]	100 to 1000	10 to 100	> 1000	10 to 100
O=C1CCC(N2C(=O)c3ccc(NCCC[C@H]4C[C@H](n5cc(-c6cnc7ccc(OC8CCNCC8)cc7n6)cn5)C4)cc3C2=O)C(=O)N1 (stereo partly drawn) [GS-204, 2-(2,6-Dioxopiperidin-3-yl)-5-((3-(trans-3-(4-(7-(piperidin-4-yloxy)quinoxalin-2-yl)-1H-pyrazol-1-yl)cyclobutyl)propyl)amino)isoindoline-1,3-dione]	10 to 100	10 to 100	100 to 1000	< 10
O=C1CCC(N2C(=O)c3ccc(NCCC4CC(C(=O)N5CCC(n6cc(-c7cnc8ccccc8n7)cn6)CC5)C4)cc3C2=O)C(=O)N1 (centres unmarked) [GS-205, 2-(2,6-Dioxopiperidin-3-yl)-5-((2-(3-(4-(4-(quinoxalin-2-yl)-1H-pyrazol-1-yl)piperidine-1-carbonyl)cyclobutyl)ethyl)amino)isoindoline-1,3-dione]	10 to 100	< 10	10 to 100	< 10
O=C1CCC(N2C(=O)c3ccc(NCCC[C@H]4C[C@@H](n5cc(-c6cnc7ccc(N8CCOCC8)cc7n6)cn5)C4)cc3C2=O)C(=O)N1 (stereo partly drawn) [GS-207, 2-(2,6-Dioxopiperidin-3-yl)-5-((3-(cis-3-(4-(7-morpholinoquinoxalin-2-yl)-1H-pyrazol-1-yl)cyclobutyl)propyl)amino)isoindoline-1,3-dione]	100 to 1000	10 to 100	100 to 1000	< 10
O=C1CCC(N2C(=O)c3ccc(NCCC[C@H]4C[C@H](n5cc(-c6cnc7ccc(CN8CCNCC8)cc7n6)cn5)C4)cc3C2=O)C(=O)N1 (stereo partly drawn) [GS-209, 2-(2,6-Dioxopiperidin-3-yl)-5-((3-(trans-3-(4-(7-(piperazin-1-ylmethyl)quinoxalin-2-yl)-1H-pyrazol-1-yl)cyclobutyl)propyl)amino)isoindoline-1,3-dione]	100 to 1000	10 to 100	100 to 1000	10 to 100
O=C1CCC(N2C(=O)c3ccc(NCCC[C@H]4C[C@@H](n5cc(-c6cnc7ccc(C8CCOCC8)cc7n6)c(C(F)(F)F)n5)C4)cc3C2=O)C(=O)N1 (stereo partly drawn) [GS-210, 2-(2,6-Dioxopiperidin-3-yl)-5-((3-(cis-3-(4-(7-(tetrahydro-2H-pyran-4-yl)quinoxalin-2-yl)-3-(trifluoromethyl)-1H-pyrazol-1-yl)cyclobutyl)propyl)amino)isoindoline-1,3-dione]	< 10	< 10	< 10	< 10
O=C1CCC(N2C(=O)c3ccc(NCCC[C@H]4C[C@H](n5cc(-c6cnc7ccc(C(F)(F)F)cc7n6)cn5)C4)cc3C2=O)C(=O)N1 (stereo partly drawn) [GS-212, 2-(2,6-Dioxopiperidin-3-yl)-5-((3-(trans-3-(4-(7-(trifluoromethyl)quinoxalin-2-yl)-1H-pyrazol-1-yl)cyclobutyl)propyl)amino)isoindoline-1,3-dione]	10 to 100	10 to 100	10 to 100	10 to 100
O=C1CCC(N2C(=O)c3ccc(NCCC[C@H]4C[C@@H](n5cc(-c6cnc7ccc(C8CCOCC8)cc7n6)c(C6CC6)n5)C4)cc3C2=O)C(=O)N1 (stereo partly drawn) [GS-213, 5-((3-(cis-3-(3-Cyclopropyl-4-(7-(tetrahydro-2H-pyran-4-yl)quinoxalin-2-yl)-1H-pyrazol-1-yl)cyclobutyl)propyl)amino)-2-(2,6-dioxopiperidin-3-yl)isoindoline-1,3-dione]	< 10	< 10	< 10	< 10
O=C1CCC(N2C(=O)c3ccc(NCCC[C@H]4C[C@H](n5cc(-c6cnc7ccc(N8CC9CCC(C8)N9)cc7n6)cn5)C4)cc3C2=O)C(=O)N1 (stereo partly drawn) [GS-215, 5-((3-(trans-3-(4-(7-(3,8-Diazabicyclo[3.2.1]octan-3-yl)quinoxalin-2-yl)-1H-pyrazol-1-yl)cyclobutyl)propyl)amino)-2-(2,6-dioxopiperidin-3-yl)isoindoline-1,3-dione]	100 to 1000	10 to 100	100 to 1000	< 10
O=C1CCC(N2C(=O)c3ccc(NC[C@H]4C[C@H](n5cc(-c6cccc(N7CCOCC7)n6)cn5)C4)cc3C2=O)C(=O)N1 (stereo partly drawn) [GS-216, 2-(2,6-Dioxopiperidin-3-yl)-5-(((trans-3-(4-(6-morpholinopyridin-2-yl)-1H-pyrazol-1-yl)cyclobutyl)methyl)amino)isoindoline-1,3-dione]	100 to 1000	> 1000	> 1000	> 1000
O=C1CCC(N2C(=O)c3ccc(NC[C@H]4C[C@H](n5cc(-c6cccc(NC7CCOCC7)n6)cn5)C4)cc3C2=O)C(=O)N1 (stereo partly drawn) [GS-218, 2-(2,6-Dioxopiperidin-3-yl)-5-(((trans-3-(4-(6-((tetrahydro-2H-pyran-4-yl)amino)pyridin-2-yl)-1H-pyrazol-1-yl)cyclobutyl)methyl)amino)isoindoline-1,3-dione]	100 to 1000	10 to 100	100 to 1000	10 to 100
O=C1CCC(N2C(=O)c3ccc(NCCC[C@H]4C[C@H](n5cc(-c6cnc7c(Cl)cccc7n6)cn5)C4)cc3C2=O)C(=O)N1 (stereo partly drawn) [GS-219, 5-((3-(trans-3-(4-(5-Chloroquinoxalin-2-yl)-1H-pyrazol-1-yl)cyclobutyl)propyl)amino)-2-(2,6-dioxopiperidin-3-yl)isoindoline-1,3-dione]	100 to 1000	10 to 100	> 1000	10 to 100
O=C1CCC(N2C(=O)c3ccc(NCCC[C@H]4C[C@H](n5cc(-c6cnc7ccc(N8CCNC9(CC9)C8)cc7n6)cn5)C4)cc3C2=O)C(=O)N1 (stereo partly drawn) [GS-220, 5-((3-(trans-3-(4-(7-(4,7-Diazaspiro[2.5]octan-7-yl)quinoxalin-2-yl)-1H-pyrazol-1-yl)cyclobutyl)propyl)amino)-2-(2,6-dioxopiperidin-3-yl)isoindoline-1,3-dione]	> 1000	100 to 1000	> 1000	100 to 1000

Next, values leading:

IC50 (MV4;11 cells; [1]) [nM]	IC50 (MV4;11 cells; [2]) [nM]	IC50 (MOLM-13 cells; [3]) [nM]	IC50 (MOLM-13 cells; [4]) [nM]	SMILES
10 to 100	10 to 100	100 to 1000	10 to 100	O=C1CCC(N2C(=O)c3ccc(NCCC[C@H]4C[C@H](n5cc(-c6cnc7ccc(Cl)cc7n6)cn5)C4)cc3C2=O)C(=O)N1 (stereo partly drawn) [GS-206, 5-((3-(trans-3-(4-(7-Chloroquinoxalin-2-yl)-1H-pyrazol-1-yl)cyclobutyl)propyl)amino)-2-(2,6-dioxopiperidin-3-yl)isoindoline-1,3-dione]
100 to 1000	10 to 100	100 to 1000	10 to 100	O=C1CCC(N2C(=O)c3ccc(NCCC[C@H]4C[C@H](n5cc(-c6cnc7ccc(CN8CCOCC8)cc7n6)cn5)C4)cc3C2=O)C(=O)N1 (stereo partly drawn) [GS-208, 2-(2,6-Dioxopiperidin-3-yl)-5-((3-(trans-3-(4-(7-(morpholinomethyl)quinoxalin-2-yl)-1H-pyrazol-1-yl)cyclobutyl)propyl)amino)isoindoline-1,3-dione]
10 to 100	< 10	10 to 100	< 10	O=C1CCC(N2C(=O)c3ccc(NCCCCC(=O)N4CCC(n5cc(-c6cnc7ccc(N8CCNCC8)cc7n6)c(C6CC6)n5)CC4)cc3C2=O)C(=O)N1 (centres unmarked) [GS-211, 5-((5-(4-(3-Cyclopropyl-4-(7-(piperazin-1-yl)quinoxalin-2-yl)-1H-pyrazol-1-yl)piperidin-1-yl)-5-oxopentyl)amino)-2-(2,6-dioxopiperidin-3-yl)isoindoline-1,3-dione]
100 to 1000	10 to 100	> 1000	10 to 100	O=C1CCC(N2C(=O)c3ccc(NCCC[C@H]4C[C@@H](n5cc(-c6cnc7ccc(NC8CCNCC8)cc7n6)cn5)C4)cc3C2=O)C(=O)N1 (stereo partly drawn) [GS-214, 2-(2,6-Dioxopiperidin-3-yl)-5-((3-(cis-3-(4-(7-(piperidin-4-ylamino)quinoxalin-2-yl)-1H-pyrazol-1-yl)cyclobutyl)propyl)amino)isoindoline-1,3-dione]
10 to 100	< 10	100 to 1000	< 10	O=C1CCC(N2C(=O)c3ccc(NCCC[C@H]4C[C@H](n5cc(-c6cccc(N7CCOCC7)n6)cn5)C4)cc3C2=O)C(=O)N1 (stereo partly drawn) [GS-217, 2-(2,6-Dioxopiperidin-3-yl)-5-((3-(trans-3-(4-(6-morpholinopyridin-2-yl)-1H-pyrazol-1-yl)cyclobutyl)propyl)amino)isoindoline-1,3-dione]
< 10	< 10	< 10	< 10	Cc1nn([C@H]2C[C@@H](CCCNc3ccc4c(c3)C(=O)N(C3CCC(=O)NC3=O)C4=O)C2)cc1-c1cnc2ccc(N3CCOCC3)cc2n1 (stereo partly drawn) [GS-221, 2-(2,6-Dioxopiperidin-3-yl)-5-((3-(cis-3-(3-methyl-4-(7-morpholinoquinoxalin-2-yl)-1H-pyrazol-1-yl)cyclobutyl)propyl)amino)isoindoline-1,3-dione]

— patent US20240050428A1 (Cullgen (Shanghai), Inc., priority 2020, published 2024)
